Source: patent US8435956B2, “Compositions and methods for protecting cells from toxic exposures” (Percitus Biosciences, LLC, priority 2007, dated 2013)
“And” between values parts separate entries of the source, which are not always exact repeats. Identical values can stand only once.

Columns and labels:
[1] = randomized Phase III human trials: head and neck cancer, lung cancer, carboplatin myelosuppression, rectal cancer; cited from earlier work
[2] = target: T1, Calf intestinal alkaline phosphatase (CIAP) (Bos taurus, UniProt P19111); test: Alkaline phosphatase dephosphorylation, free sulfhydryl groups measured with DTNB (Ellman's Reagent) at A412; type: biochemical
T1 construct: purchased Sigma
T1 sequence (P19111 20-506): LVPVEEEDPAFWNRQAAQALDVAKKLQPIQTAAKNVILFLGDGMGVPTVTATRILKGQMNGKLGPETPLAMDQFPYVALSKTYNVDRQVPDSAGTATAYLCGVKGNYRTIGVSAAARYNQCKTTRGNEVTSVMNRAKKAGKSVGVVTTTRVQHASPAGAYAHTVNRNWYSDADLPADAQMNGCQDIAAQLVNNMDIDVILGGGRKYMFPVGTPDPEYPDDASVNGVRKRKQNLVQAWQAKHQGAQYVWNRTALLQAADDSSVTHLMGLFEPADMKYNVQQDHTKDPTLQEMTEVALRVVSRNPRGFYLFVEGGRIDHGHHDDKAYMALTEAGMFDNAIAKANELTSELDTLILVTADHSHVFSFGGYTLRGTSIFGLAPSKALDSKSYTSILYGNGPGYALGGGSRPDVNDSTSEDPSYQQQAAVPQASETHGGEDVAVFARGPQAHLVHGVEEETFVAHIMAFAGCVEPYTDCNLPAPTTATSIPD
Protocol: Assays were performed to verify the ability of alkaline phosphatase to dephosphorylate compound (7) to create sulfydryl reactive groups. Calf intestinal alkaline phosphatase (CIAP, Sigma) was diluted in phosphate buffered saline (PBS) to 250 units/ml, and frozen in tubes containing 100 μl aliquots.
A second assay was performed to examine the ability of alkaline phosphatase to dephosphorylate compound (7) to create sulfydryl reactive groups. A 12.5 mM solution of Compound 7 was made (4 mg/ml) and used in the test reactions.
A time course of dephosphorylation was also performed using Compound 7, following the same reaction conditions as in Table 3.

mice = settings: doses up to 5 mmoles/animal
HepG2 = system: HepG2
Protocol: The compound ((S)-ethyl 2-amino-5-((R)-1-ethoxy-1-oxo-3-(phosphonothio)propan-2-ylamino)-5-oxopentanoate monosodium salt) was tested for intracellular properties. In particular, experiments were conducted to determine the ability of the compound to enter into cells and generate glutathione. HepG2 were incubated with the compound with or without added bovine intestinal alkaline phosphatase (Sigma). Cells were scraped into SSA, vortexed and then spun.

hamsters = settings: doses up to 5 mmoles/animal
[3] = co-administration of reduced glutathione, clinical trial; cited from earlier work

NCCCNCCSP(=O)(O)O [AF, S-2-(3-aminopropylamino)ethylphosphorothioic acid, reference compound]
toxicity of chemotherapy and radiation therapy [1]: reduce toxicity
A412 ([2]; reaction 2: 10 μl 5 mM AF, 890 μl PBS, no CIAP, no DTNB, 10 min room temperature): 0.00
A412 ([2]; reaction 3: 10 μl 5 mM AF, 25 μl CIAP, 865 μl PBS, no DTNB, 10 min room temperature): 0.00
A412 ([2]; reaction 4: 20 μl 5 mM AF, 50 μl CIAP (so in the source), 100 μl DTNB, 880 μl PBS, 10 min room temperature): 0.03
A412 ([2]; reaction 5: 20 μl 5 mM AF, 50 μl CIAP, 100 μl DTNB, 830 μl PBS, 10 min room temperature): 0.34

CCOC(=O)[C@H](CSP(=O)([O-])O)NC(=O)CC[C@H](N)C(=O)OCC.[Na+] [Compound 7, (S)-ethyl 2-amino-5-((R)-1-ethoxy-1-oxo-3-(phosphonothio)propan-2-ylamino)-5-oxopentanoate monosodium salt]
overt toxicity (mice): no overt toxicity
time course of dephosphorylation (free sulfhydryl groups) ([2]; 30 min. period, A412 readings at 3 min. intervals, conditions as in Table 3): time dependent
dephosphorylation by alkaline phosphatase ([2]; conclusion from Table 3): dephosphorylated by alkaline phosphatase to yield free reactive sulfhydryl groups
A412 ([2]; with CIAP (50 μl): 10 μl 12.5 mM C7, 100 μl DTNB, 840 μl PBS, 10 min 37° C., listed as C7, monosodium salt): 0.547 and 0.526
A412 ([2]; without CIAP (negative reaction): 10 μl 12.5 mM C7, 100 μl DTNB, 890 μl PBS, 10 min 37° C., listed as C7, monosodium salt): 0.044 and 0.039
increase in cellular GSH (HepG2; HepG2, compound and alkaline phosphatase, in the presence of buthionine sulfoximine): greater than 5 fold
entry into cells (HepG2; HepG2, without prior hydrolysis of the phosphate group by alkaline phosphatase): did not enter cells
toxicity to cells (HepG2; HepG2 incubated with compound with or without alkaline phosphatase): did not exhibit any evidence of toxicity
increase in GSH contents (HepG2; HepG2 treated with the compound and alkaline phosphatase): 3.6 fold
overt toxicity (hamsters): no overt toxicity

N[C@@H](CCC(=O)N[C@@H](CS)C(=O)NCC(=O)O)C(=O)O [GSH, glutathione, reference compound]
A412 ([2]; reaction 1, positive control: 10 μl 2 mM GSH, 100 μl DTNB, 890 μl PBS, no CIAP, 5 min room temperature): 0.35
neuropathy seen with oxaliplatin [3]: significantly reduce the neuropathy
